# Experimental data: US12377106B2, “Piperidinylpyrazine-carboxamide compounds for treating and preventing cancer and for degrading BTK” (NURIX THERAPEUTICS, INC., priority 2021, dated 2025)
# Entries after “also recorded” stand apart in the source; their conditions may differ.
# Assays:
# [1] = Plasma concentrations of compound 149 after once daily oral dosing; format: in vivo, human; settings: all patients, once daily oral 100 mg or 200 mg
# Method: (§1) Compound 149 was administered to human patients in a Phase 1a/lb trial investigating safety and tolerability in relapsed and refractory B cell malignancies. Compound 149 was administered as a once daily oral dose first in an accelerated Phase 1a dose escalation starting at 100 mg on Day 1. The first dose levels are explored in a single patient cohort until a grade 2 adverse event has been observed. Thereafter, a traditional 3+3 escalation design is used. This 100 mg starting dose was predicted to provide similar exposure as that observed in non-human primate studies. Once a dose is selected based on all safety, efficacy, pharmacokinetic, and pharmacodynamic data available, the trial will expand in up to five expansion cohorts.
# [2] = Safety and tolerability in patients with relapsed and refractory B cell malignancies; format: in vivo; settings: for Anemia, Grade ≥ 3 / Clostridium difficile colitis, Grade ≥ 3 / Clostridium difficile infection, Grade ≥ 3 / Cognitive disorder, Grade ≥ 3 / Dyspnea, Grade ≥ 3 / Hypertension, Grade ≥ 3 / Neutropenia, Grade ≥ 3 / Pain in extremity, Grade ≥ 3 / Upper resp. tract infection, Grade ≥ 3: all patients
# Method: as §1
# (§2) Patients were treated at four different dosage levels of Compound 149: dose level 1 (100 mg), dose level 2 (200 mg), dose level 3 (300 mg), and dose level 4 (400 mg). The objective of the study was to assess safety and tolerability, to identify maximum tolerated dose, and to evaluate PK/PD.
# Safety population included 19 subjects, and data is summarize in Table 6 below. Two subjects were assigned to the 100 mg cohort but treatment was not entered in the electronic data capture (EDC) at time of extract.
# patients with CLL = test: Efficacy evaluations in CLL patients; format: in vivo, human
# Method: as §2
# Patients evaluated in this study were treated for diseases or disorders selected from the group consisting of: chronic lymphocytic leukemia (CLL) with BTK C481 mutation (n 20); CLL without BTK C481 mutation (n˜20); mantle cell lymphoma (MCL), marginal zone lymphoma (MZL), Waldenstrom's macroglobulinemia (WM) (n˜20); follicular lymphoma (FL) (n˜20); and diffuse large B cell lymphoma (DLBCL) (n˜20). Heavily pretreated patient population, including double-refractory CLL patients.
# Data shown in FIG. 6 confirms that Compound 149 is a potent BTK degrader to solve inhibitor resistance observed with prior therapy.
# [3] = system: patient with non-GCB (ABC subtype) DLBCL; test: Response of a patient with non-GCB (ABC subtype) DLBCL (Lugano criteria, FDG-PET CT scan); format: in vivo, human; settings: 300 mg
# Method: A heavily pre-treated patient with non-GCB (ABC subtype) DLBCL was enrolled in Compound 149 phase 1 dose-escalation. The patient was treated at a single dosage level of Compound 149: […] (300 mg) for a period of 5 months and ongoing. The objective of the study was to assess safety and tolerability, to identify maximum tolerated dose, and to evaluate PK/PD.
# (§3) The patient's response was checked at 8 weeks and 16 weeks. […] Gradual BTK degradation was observed until day 8 day of receiving the 300 mg dose of Compound 149, wherein the maximum BTK degradation was achieved on the 8th day. Consistent with its design, Compound 149 also degraded Ikaros and Aiolos which is responsible for the compound's immunomodulatory activity. […] In the 16-week assessment image, maximum standard uptake value (Max SUV) reduced from 17.6 at screening to 2.5 at the 16-week assessment time with the Deauville five-point scale (5PS; Barrington et al., 2010, Eur J Nucl Med Mol Imaging 37 (10): 1824-33) reducing from 5 to 2.
# Ikaros = molecular target: T1, Ikaros (Homo sapiens, UniProt Q13422+Q96SW2); test: Ikaros degradation in the patient; format: in vivo; settings: DLBCL patient, 300 mg
# T1 construct: peripheral blood was obtained from all patients for baseline and post Compound 149 therapy assessment of BTK and Ikaros degradation; endogenous in cells; host or cells: peripheral blood cells of a DLBCL patient
# Method: Following informed consent, peripheral blood was obtained from all patients for baseline and post Compound 149 therapy assessment of BTK and Ikaros degradation. Patient blood (5 mL) was drawn and immediately fixed in a 5 mL CytoChex™ BCT tube and stored at ambient temperature until assessment via flow cytometry. Blood samples were analyzed within 3 days post sample collection at Precision for Medicine. Additional blood was also drawn into 8 mL BD Vacutainer® CPT™ Cell Preparation Tube with Sodium Citrate. Peripheral blood mononuclear cells (PBMCs) were processed, and viability frozen according to manufacturer's protocol. The patient's response was checked at 8 weeks and 16 weeks. […] Gradual BTK degradation was observed until day 8 day of receiving the 300 mg dose of Compound 149, wherein the maximum BTK degradation was achieved on the 8th day. Consistent with its design, Compound 149 also degraded Ikaros and Aiolos which is responsible for the compound's immunomodulatory activity. […] In the 16-week assessment image, maximum standard uptake value (Max SUV) reduced from 17.6 at screening to 2.5 at the 16-week assessment time with the Deauville five-point scale (5PS; Barrington et al., 2010, Eur J Nucl Med Mol Imaging 37 (10): 1824-33) reducing from 5 to 2.
# Aiolos = molecular target: T2, Aiolos (Homo sapiens, UniProt Q96SW2+Q9UKT9); test: Aiolos degradation in the patient; format: in vivo; settings: DLBCL patient, 300 mg
# T2 construct: Compound 149 also degraded Ikaros and Aiolos; endogenous in cells
# Method: as §3
# T1 sequence (Q13422 whole entry): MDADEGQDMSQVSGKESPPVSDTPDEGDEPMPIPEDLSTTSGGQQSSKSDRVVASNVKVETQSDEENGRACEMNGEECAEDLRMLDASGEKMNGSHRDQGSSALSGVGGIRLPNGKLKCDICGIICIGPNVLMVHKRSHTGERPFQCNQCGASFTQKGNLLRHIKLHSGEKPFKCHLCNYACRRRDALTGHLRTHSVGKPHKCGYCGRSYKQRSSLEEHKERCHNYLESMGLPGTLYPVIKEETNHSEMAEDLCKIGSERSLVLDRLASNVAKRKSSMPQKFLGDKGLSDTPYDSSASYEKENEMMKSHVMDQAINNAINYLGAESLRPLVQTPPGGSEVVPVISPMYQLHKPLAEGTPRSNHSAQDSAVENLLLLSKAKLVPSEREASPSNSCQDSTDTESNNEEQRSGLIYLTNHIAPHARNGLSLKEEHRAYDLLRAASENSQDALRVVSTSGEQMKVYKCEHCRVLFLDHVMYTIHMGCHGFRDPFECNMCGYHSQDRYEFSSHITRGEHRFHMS
# T1 sequence (Q96SW2 whole entry): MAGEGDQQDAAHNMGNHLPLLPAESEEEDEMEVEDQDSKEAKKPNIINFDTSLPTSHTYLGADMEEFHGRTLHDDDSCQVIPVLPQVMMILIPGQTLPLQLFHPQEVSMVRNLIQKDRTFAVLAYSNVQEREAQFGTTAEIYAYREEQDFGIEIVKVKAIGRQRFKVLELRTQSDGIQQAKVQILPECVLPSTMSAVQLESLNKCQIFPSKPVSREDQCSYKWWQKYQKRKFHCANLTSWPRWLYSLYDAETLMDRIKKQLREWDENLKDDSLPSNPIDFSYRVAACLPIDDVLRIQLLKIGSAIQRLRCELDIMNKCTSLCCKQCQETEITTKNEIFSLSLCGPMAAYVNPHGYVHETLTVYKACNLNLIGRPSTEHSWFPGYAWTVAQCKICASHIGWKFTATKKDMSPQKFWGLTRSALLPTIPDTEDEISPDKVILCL
# T1 sequence (Q16531 whole entry partner): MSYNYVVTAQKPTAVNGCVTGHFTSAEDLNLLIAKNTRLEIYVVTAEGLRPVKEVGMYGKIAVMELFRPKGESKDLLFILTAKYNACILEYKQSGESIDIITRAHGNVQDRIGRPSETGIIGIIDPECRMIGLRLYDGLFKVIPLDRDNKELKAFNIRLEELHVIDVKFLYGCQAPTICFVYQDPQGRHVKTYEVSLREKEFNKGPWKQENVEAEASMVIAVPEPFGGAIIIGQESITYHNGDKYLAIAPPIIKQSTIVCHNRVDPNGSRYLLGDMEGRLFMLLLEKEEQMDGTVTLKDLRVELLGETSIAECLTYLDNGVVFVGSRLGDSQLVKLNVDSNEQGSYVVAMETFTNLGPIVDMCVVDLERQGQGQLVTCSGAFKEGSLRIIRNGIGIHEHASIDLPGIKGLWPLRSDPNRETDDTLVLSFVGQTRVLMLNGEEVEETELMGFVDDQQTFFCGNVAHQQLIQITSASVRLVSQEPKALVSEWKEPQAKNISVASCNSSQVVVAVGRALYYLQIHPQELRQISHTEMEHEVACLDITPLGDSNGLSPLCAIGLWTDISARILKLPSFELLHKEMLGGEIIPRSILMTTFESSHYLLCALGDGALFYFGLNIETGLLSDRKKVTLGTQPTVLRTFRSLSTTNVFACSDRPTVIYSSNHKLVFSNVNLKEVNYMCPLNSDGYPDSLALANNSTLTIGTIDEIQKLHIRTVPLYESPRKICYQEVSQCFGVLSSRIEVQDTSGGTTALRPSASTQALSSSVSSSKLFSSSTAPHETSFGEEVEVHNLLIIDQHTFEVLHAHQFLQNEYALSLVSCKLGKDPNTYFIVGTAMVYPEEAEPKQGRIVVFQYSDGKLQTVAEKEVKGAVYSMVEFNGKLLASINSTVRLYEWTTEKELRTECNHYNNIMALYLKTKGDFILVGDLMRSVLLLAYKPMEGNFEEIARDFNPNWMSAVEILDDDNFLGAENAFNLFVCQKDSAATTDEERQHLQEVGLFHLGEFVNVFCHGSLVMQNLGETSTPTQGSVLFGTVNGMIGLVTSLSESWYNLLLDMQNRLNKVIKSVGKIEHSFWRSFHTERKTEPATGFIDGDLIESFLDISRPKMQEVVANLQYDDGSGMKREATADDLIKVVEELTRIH
# T2 sequence (Q9UKT9 whole entry): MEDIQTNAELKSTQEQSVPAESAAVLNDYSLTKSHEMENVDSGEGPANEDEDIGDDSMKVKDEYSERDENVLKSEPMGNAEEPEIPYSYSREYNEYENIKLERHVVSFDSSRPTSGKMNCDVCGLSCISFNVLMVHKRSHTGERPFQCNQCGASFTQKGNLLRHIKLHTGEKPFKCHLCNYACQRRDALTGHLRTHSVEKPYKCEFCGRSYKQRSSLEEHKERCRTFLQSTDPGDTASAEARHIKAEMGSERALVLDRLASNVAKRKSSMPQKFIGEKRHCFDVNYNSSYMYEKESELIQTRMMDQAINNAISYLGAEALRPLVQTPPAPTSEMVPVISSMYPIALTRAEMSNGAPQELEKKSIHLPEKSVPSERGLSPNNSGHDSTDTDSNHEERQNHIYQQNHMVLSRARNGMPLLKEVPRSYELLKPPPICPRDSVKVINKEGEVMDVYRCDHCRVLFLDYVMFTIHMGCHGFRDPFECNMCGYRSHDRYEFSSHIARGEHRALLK
# T2 sequence (Q96SW2 whole entry): as the sequence (Q96SW2 whole entry) above
# T2 sequence (Q16531 whole entry partner): as the sequence (Q16531 whole entry partner) above
structure (smiles),measurement,setting,value
NC(=O)c1ncc(N2CCCCC2)nc1Nc1ccc(C2CCN(C[C@@H]3CCN(c4ccc5c(c4)C(=O)N(C4CCC(=O)NC4=O)C5=O)C3)CC2)cc1 (some centres unmarked) [Compound 149],steady state plasma concentrations achieved by,[1],≤ 8 days
same,"Anemia, Grade ≥ 3",[2]; 100 mg (N = 10),1 (10%) n (%)
same,"Clostridium difficile colitis, Grade ≥ 3",[2]; 100 mg (N = 10),0 (0%) n (%)
same,"Clostridium difficile infection, Grade ≥ 3",[2]; 100 mg (N = 10),0 (0%) n (%)
same,"Cognitive disorder, Grade ≥ 3",[2]; 100 mg (N = 10),0 (0%) n (%)
same,"Dyspnea, Grade ≥ 3",[2]; 100 mg (N = 10),0 (0%) n (%)
same,"Hypertension, Grade ≥ 3",[2]; 100 mg (N = 10),0 (0%) n (%)
same,"Neutropenia, Grade ≥ 3",[2]; 100 mg (N = 10),1 (10%) n (%)
same,"Pain in extremity, Grade ≥ 3",[2]; 100 mg (N = 10),0 (0%) n (%)
same,"Upper resp. tract infection, Grade ≥ 3",[2]; 100 mg (N = 10),0 (0%) n (%)
same,"Anemia, Grade ≥ 3",[2]; 200 mg (N = 6),1 (16.7%) n (%)
same,"Clostridium difficile colitis, Grade ≥ 3",[2]; 200 mg (N = 6),1 (16.7%) n (%)
same,"Clostridium difficile infection, Grade ≥ 3",[2]; 200 mg (N = 6),1 (16.7%) n (%)
same,"Cognitive disorder, Grade ≥ 3",[2]; 200 mg (N = 6),0 (0%) n (%)
same,"Dyspnea, Grade ≥ 3",[2]; 200 mg (N = 6),1 (16.7%) n (%)
same,"Hypertension, Grade ≥ 3",[2]; 200 mg (N = 6),1 (16.7%) n (%)
same,"Neutropenia, Grade ≥ 3",[2]; 200 mg (N = 6),3 (50%) n (%)
same,"Pain in extremity, Grade ≥ 3",[2]; 200 mg (N = 6),0 (0%) n (%)
same,"Upper resp. tract infection, Grade ≥ 3",[2]; 200 mg (N = 6),1 (16.7%) n (%)
same,"Anemia, Grade ≥ 3",[2]; 300 mg (N = 3),0 (0%) n (%)
same,"Clostridium difficile colitis, Grade ≥ 3",[2]; 300 mg (N = 3),0 (0%) n (%)
same,"Clostridium difficile infection, Grade ≥ 3",[2]; 300 mg (N = 3),0 (0%) n (%)
same,"Cognitive disorder, Grade ≥ 3",[2]; 300 mg (N = 3),1 (33.3%) n (%)
same,"Dyspnea, Grade ≥ 3",[2]; 300 mg (N = 3),0 (0%) n (%)
same,"Hypertension, Grade ≥ 3",[2]; 300 mg (N = 3),0 (0%) n (%)
same,"Neutropenia, Grade ≥ 3",[2]; 300 mg (N = 3),2 (66.7%) n (%)
same,"Pain in extremity, Grade ≥ 3",[2]; 300 mg (N = 3),1 (33.3%) n (%)
same,"Upper resp. tract infection, Grade ≥ 3",[2]; 300 mg (N = 3),0 (0%) n (%)
same,dose limiting toxicity,"[2]; 300 mg, a CLL patient, cognitive AE believed related to immunomodulatory activity",Dose limiting toxicity was observed
same,dose limiting toxicity (DLT) or serious adverse event (SAE),"[2]; DLBCL patient, 300 mg, 5 months and ongoing",no dose limiting toxicity (DLT) or serious adverse event (SAE) was observed
same,atrial fibrillation adverse events,[2]; at 100 mg in a patient with MCL and at 200 mg in a patient with CLL,Two AEs of lower grade atrial fibrillation were observed
same,tolerability / dose limiting toxicities,"[2]; humans, 100 mg and 200 mg per dose",well-tolerated with no dose limiting toxicities
same,clinical activity / benefit in CLL patients,"patients with CLL; CLL patients with prior therapy (median of six prior treatments), 100 mg, FIG. 4",durable benefit; also recorded: showed clinical activity
same,nodal reductions and/or lymphocytosis,"patients with CLL; all evaluable CLL patients, FIG. 5",nodal reductions and/or lymphocytosis observed in all patients treated
same,responses in BTK inhibitor-resistant CLL patients,"patients with CLL; evaluable CLL patients, FIG. 5",responses in patients with resistance mutations to covalent and non-covalent BTK inhibitors
same,Deauville five-point scale (5PS),"[3]; DLBCL patient, 16-week assessment, 5 at screening",2
same,maximum standard uptake value (Max SUV),"[3]; DLBCL patient, 16-week assessment, 17.6 at screening",2.5
same,response per Lugano criteria at 8 weeks,[3]; heavily pre-treated non-GCB (ABC subtype) DLBCL patient,complete response
same,response at the 16-week assessment (FDG-PET CT Scan Disease Assessment),"[3]; non-GCB (ABC subtype) DLBCL patient, FIG. 9",complete confirmed response
same,Ikaros degradation,Ikaros,degraded
same,Aiolos degradation,Aiolos,degraded
